Laboratory results reported in US11370794B2, “Toll-like receptor antagonist compounds and methods of use” (Dynavax Technologies Corporation, priority 2016, dated 2022).

Key:
human TLR8 = molecular target: T1, human TLR8 (Homo sapiens, UniProt Q9NR97); test: Inhibition of human TLR8 in human monocytes (TNF-alpha / IL-1 beta ELISA); type: cell-based; conditions: for IC50: human monocytes, agonist ORN8L 100 μg/mL, TNF-alpha readout, 24 hours, read-out: Human TLR8 IC50 TNF-a
T1 construct: endogenous in cells; host or cells: primary human monocytes (CD14 microbeads) from buffy coats of healthy donors
T1 sequence (Q9NR97 27-1041): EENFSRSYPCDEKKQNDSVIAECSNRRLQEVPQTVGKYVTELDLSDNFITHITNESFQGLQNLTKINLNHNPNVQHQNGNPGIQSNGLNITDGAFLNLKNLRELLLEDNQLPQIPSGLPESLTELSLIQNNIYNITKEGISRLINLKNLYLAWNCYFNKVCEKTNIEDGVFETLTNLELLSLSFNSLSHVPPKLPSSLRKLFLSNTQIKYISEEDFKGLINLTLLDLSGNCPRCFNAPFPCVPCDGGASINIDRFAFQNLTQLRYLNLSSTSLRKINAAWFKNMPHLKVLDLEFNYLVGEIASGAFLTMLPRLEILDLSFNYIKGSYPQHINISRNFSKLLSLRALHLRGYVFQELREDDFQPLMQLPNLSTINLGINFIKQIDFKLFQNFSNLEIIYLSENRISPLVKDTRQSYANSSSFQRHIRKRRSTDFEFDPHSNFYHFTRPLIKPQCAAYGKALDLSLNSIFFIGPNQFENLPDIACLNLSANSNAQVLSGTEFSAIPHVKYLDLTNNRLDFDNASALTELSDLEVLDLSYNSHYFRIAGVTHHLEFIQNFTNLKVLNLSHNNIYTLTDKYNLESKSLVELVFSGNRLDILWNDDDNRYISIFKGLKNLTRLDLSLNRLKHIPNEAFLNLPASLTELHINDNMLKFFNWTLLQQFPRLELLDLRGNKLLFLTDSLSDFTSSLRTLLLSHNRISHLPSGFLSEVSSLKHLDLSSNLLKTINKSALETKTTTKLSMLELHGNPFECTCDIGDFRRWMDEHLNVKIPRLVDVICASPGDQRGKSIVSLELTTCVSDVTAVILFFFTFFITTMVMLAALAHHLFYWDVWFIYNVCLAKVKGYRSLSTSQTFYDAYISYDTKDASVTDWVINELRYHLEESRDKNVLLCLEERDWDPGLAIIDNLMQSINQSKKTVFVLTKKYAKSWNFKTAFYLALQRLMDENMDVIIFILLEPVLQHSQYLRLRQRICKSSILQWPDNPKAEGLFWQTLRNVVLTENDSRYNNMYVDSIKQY
Procedure, shortened: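 Primary human monocytes from donor buffy coats (~200,000 cells/well) given serially diluted compound, then ORN8L RNA oligonucleotide agonist at 100 μg/mL final. After 24 h at 37 °C, supernatant TNF-alpha and/or IL-1 beta measured by ELISA; IC50 from the concentration-response of cytokine release.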

human TLR9 = molecular target: T2, human TLR9 (Homo sapiens, UniProt Q9NR96); test: Inhibition of human TLR9 in human B cells (IL-6 ELISA); type: cell-based; conditions: for IC50: human B cells, agonist 1018 ISS 1 μM, IL-6 readout, 48 hours, range about 0.01 to 10 μM, read-out: Human TLR9 IC50
T2 construct: endogenous in cells; host or cells: primary human B cells (CD19 microbeads) from buffy coats of healthy donors
T2 sequence (Q9NR96 26-1032): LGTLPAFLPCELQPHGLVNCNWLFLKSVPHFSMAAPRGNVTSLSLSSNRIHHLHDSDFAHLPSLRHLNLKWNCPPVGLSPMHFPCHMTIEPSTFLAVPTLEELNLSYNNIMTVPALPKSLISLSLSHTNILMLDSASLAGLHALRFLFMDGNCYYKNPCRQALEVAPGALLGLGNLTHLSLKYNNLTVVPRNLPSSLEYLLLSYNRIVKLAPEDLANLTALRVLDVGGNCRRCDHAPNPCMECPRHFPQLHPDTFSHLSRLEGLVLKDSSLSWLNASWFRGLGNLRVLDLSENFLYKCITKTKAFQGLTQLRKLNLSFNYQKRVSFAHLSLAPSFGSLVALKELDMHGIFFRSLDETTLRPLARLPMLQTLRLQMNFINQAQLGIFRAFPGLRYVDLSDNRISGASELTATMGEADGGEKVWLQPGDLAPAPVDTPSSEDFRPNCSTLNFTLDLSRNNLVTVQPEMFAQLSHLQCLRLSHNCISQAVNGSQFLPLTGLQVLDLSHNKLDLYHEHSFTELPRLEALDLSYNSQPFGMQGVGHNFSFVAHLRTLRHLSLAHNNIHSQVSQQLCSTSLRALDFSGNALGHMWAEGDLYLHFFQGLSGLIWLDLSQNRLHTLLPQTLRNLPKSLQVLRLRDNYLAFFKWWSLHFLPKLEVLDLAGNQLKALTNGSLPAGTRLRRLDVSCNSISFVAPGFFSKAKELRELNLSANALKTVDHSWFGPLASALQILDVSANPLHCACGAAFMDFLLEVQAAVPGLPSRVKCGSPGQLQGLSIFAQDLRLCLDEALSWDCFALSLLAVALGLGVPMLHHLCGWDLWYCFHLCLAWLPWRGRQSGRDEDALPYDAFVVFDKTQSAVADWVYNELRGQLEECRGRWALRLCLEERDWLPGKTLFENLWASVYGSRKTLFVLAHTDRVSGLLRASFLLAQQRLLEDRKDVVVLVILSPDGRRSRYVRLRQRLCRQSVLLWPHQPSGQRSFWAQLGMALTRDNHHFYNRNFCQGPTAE
Procedure, shortened: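 Primary human B cells (CD19-isolated from donor buffy coats), ~300,000 per well, treated with compound (about 0.01–10 μM, some 0.001–30 μM) then 1 μM CpG oligonucleotide 1018 ISS. After 48 hours at 37° C, supernatant IL-6 measured by ELISA; IC50 from concentration-response of TLR9-dependent activity.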

[1] = summary statement of the description

Cc1ccc(-n2nc3c(Cl)nnc(N4CCC(C(=O)NCCCN(C)C)CC4)c3c2C)cc1 [compound 48, 1-(7-chloro-3-methyl-2-(p-tolyl)-2H-pyrazolo[3,4-d]pyridazin-4-yl)-N-(3-(dimethylamino)propyl)piperidine-4-carboxamide]
IC50 (human TLR8): ≥ 20 µM | IC50 (human TLR9): 10800 nM

CNC(=O)C1CCN(c2nnc(C)c3c(C)n(-c4ccc(C)cc4)nc23)C1 (centres unmarked) [compound 57, 1-(3,4-dimethyl-2-(p-tolyl)-2H-pyrazolo[3,4-d]pyridazin-7-yl)-N-methylpyrrolidine-3-carboxamide]
IC50 (human TLR8): ≥ 20 µM | IC50 (human TLR9): 9370 nM

Cc1ccc(-n2nc3c(N4CCCC(C(=O)NCCNc5ccccc5)C4)nnc(C)c3c2C)cc1 (centres unmarked) [compound 58, 1-(3,4-dimethyl-2-(p-tolyl)-2H-pyrazolo[3,4-d]pyridazin-7-yl)-N-(2-(phenylamino)ethyl)piperidine-3-carboxamide]
IC50 (human TLR8): ≥ 20 µM | IC50 (human TLR9): 4820 nM

CCN(CC)C1CCN(C(=O)C2CCN(c3nncc4cn(-c5ccc(C)cc5)nc34)CC2)CC1 [compound 59, (4-(diethylamino)piperidin-1-yl)(1-(2-(p-tolyl)-2H-pyrazolo[3,4-d]pyridazin-7-yl)piperidin-4-yl)methanone]
IC50 (human TLR8): 0.77 µM | IC50 (human TLR9): 6 nM

Cc1ccc(-n2cc3cnnc(N4CCC(C(=O)N5CCC(CN(C)C)C5)CC4)c3n2)cc1 (centres unmarked) [compound 60, (3-((dimethylamino)methyl)pyrrolidin-1-yl)(1-(2-(p-tolyl)-2H-pyrazol[3,4-d]pyridazin-7-yl)piperidin-4-yl)methanone]
IC50 (human TLR8): 0.98 µM | IC50 (human TLR9): 2 nM

Cc1ccc(-n2cc3cnnc(N4CCC(CCC(=O)NCCN(C)C)CC4)c3n2)cc1 [compound 61, N-(2-(dimethylamino)ethyl)-3-(1-(2-(p-tolyl)-2H-pyrazolo[3,4-d]pyridazin-7-yl)piperidin-4-yl)propanamide]
IC50 (human TLR8): 4.85 µM | IC50 (human TLR9): 9 nM

Cc1ccc(-n2cc3cnnc(N4CCC(C(=O)NC5CN(C)C5)CC4)c3n2)cc1 [compound 62, N-(1-methylazetidin-3-yl)-1-(2-(p-tolyl)-2H-pyrazolo[3,4-d]pyridazin-7-yl)piperidine-4-carboxamide]
IC50 (human TLR8): 3.84 µM | IC50 (human TLR9): 21 nM

Cc1ccc(-n2nc3c(N4CCC(C(=O)NCCN(C)C)CC4)nnc(C)c3c2C(F)(F)F)cc1 [compound 63, N-(2-(dimethylamino)ethyl)-1-(4-methyl-2-(p-tolyl)-3-(trifluoromethyl)-2H-pyrazolo[3,4-d]pyridazin-7-yl)piperidine-4-carboxamide]
IC50 (human TLR8): ≥ 20 µM | IC50 (human TLR9): 5580 nM

Cc1ccc(-n2cc3cnnc(N4CCC(C(=O)NCCN5CCOCC5)CC4)c3n2)cc1 [compound 64, N-(2-morpholinoethyl)-1-(2-(p-tolyl)-2H-pyrazolo[3,4-d]pyridazin-7-yl)piperidine-4-carboxamide]
IC50 (human TLR8): ≥ 20 µM | IC50 (human TLR9): 557 nM

Cc1ccc(-n2nc3c(N4CCC(C(=O)N5CCC(N6CCC6)CC5)CC4)nnc(C)c3c2C)cc1 [compound 65, (4-(azetidin-1-yl)piperidin-1-yl)(1-(3,4-dimethyl-2-(p-tolyl)-2H-pyrazolo[3,4-d]pyridazin-7-yl)piperidin-4-yl)methanone]
IC50 (human TLR8): 1.85 µM | IC50 (human TLR9): 10 nM

Cc1ccc(-n2nc3c(N4CCC(CCC(=O)NC5CN(C)C5)CC4)nnc(C)c3c2C)cc1 [compound 66, 3-(1-(3,4-dimethyl-2-(p-tolyl)-2H-pyrazolo[3,4-d]pyridazin-7-yl)piperidin-4-yl)-N-(1-methylazetidin-3-yl)propanamide]
IC50 (human TLR8): ≥ 20 µM | IC50 (human TLR9): 182 nM

Cc1ccc(-n2nc3c(N4CCC(C(=O)N5CCC(N(C)Cc6ccccc6)CC5)CC4)nnc(C)c3c2C)cc1 [compound 67, (4-(benzyl(methyl)amino)piperidin-1-yl)(1-(3,4-dimethyl-2-(p-tolyl)-2H-pyrazolo[3,4-d]pyridazin-7-yl)piperidin-4-yl)methanone]
IC50 (human TLR8): 0.48 µM | inhibits TLR8-dependent responses (in words) (human TLR8; [1]): inhibit | IC50 (human TLR9): 49 nM | inhibits TLR9-dependent responses (in words) (human TLR9; [1]): inhibit

Cc1ccc(-n2nc3c(N4CCC(C(=O)N5CCC(CN(C)Cc6ccccc6)C5)CC4)nnc(C)c3c2C)cc1 (centres unmarked) [compound 68, (3-((benzyl(methyl)amino)methyl)pyrrolidin-1-yl)(1-(3,4-dimethyl-2-(p-tolyl)-2H-pyrazolo[3,4-d]pyridazin-7-yl)piperidin-4-yl)methanone]
IC50 (human TLR8): 1.18 µM | IC50 (human TLR9): 85 nM

Cc1ccc(-n2nc3c(N4CCC(C(=O)N5CCC(N6CCOCC6)CC5)CC4)nnc(C)c3c2C)cc1 [compound 69, (1-(3,4-dimethyl-2-(p-tolyl)-2H-pyrazolo[3,4-d]pyridazin-7-yl)piperidin-4-yl)(4-morpholinopiperidin-1-yl)methanone]
IC50 (human TLR8): 3.84 µM | IC50 (human TLR9): 253 nM

Cc1ccc(-n2nc3c(N4CCC(C(=O)N5CCC(CN6CCOCC6)C5)CC4)nnc(C)c3c2C)cc1 (centres unmarked) [compound 70, (1-(3,4-dimethyl-2-(p-tolyl)-2H-pyrazolo[3,4-d]pyridazin-7-yl)piperidin-4-yl)(3-(morpholinomethyl)pyrrolidin-1 yl)methanone]
IC50 (human TLR8): 5.12 µM | IC50 (human TLR9): 150 nM

Cc1ccc(-n2nc3c(N4CCC(C(=O)N5CC6CNCC6C5)CC4)nnc(C)c3c2C)cc1 (centres unmarked) [compound 71, (1-(3,4-dimethyl-2-(p-tolyl)-2H-pyrazolo[3,4-d]pyridazin-7-yl)piperidin-4-yl) (hexahydropyrrolo[3,4-c]pyrrol-2(1H)-yl)methanone]
IC50 (human TLR8): ≥ 20 µM | IC50 (human TLR9): 588 nM

Cc1ccc(-n2nc3c(N4CCC(C(=O)N5CC6CN(C)CC6C5)CC4)nnc(C)c3c2C)cc1 (centres unmarked) [compound 72, (1-(3,4-dimethyl-2-(p-tolyl)-2H-pyrazolo[3,4-d]pyridazin-7-yl)piperidin-4-yl)(5-methylhexahydropyrrolo[3,4-c]pyrrol-2(1H)-yl)methano]
IC50 (human TLR8): 9.17 µM | IC50 (human TLR9): 12 nM

Cc1ccc(-n2nc3c(N4CCC(C(=O)N5CCC6(CC5)CNC6)CC4)nnc(C)c3c2C)cc1 [compound 73, (1-(3,4-dimethyl-2-(p-tolyl)-2H-pyrazolo[3,4-d]pyridazin-7-yl)piperidin-4-yl)(2,7-diazaspiro[3.5]nonan-7-yl)methanone]
IC50 (human TLR8): ≥ 20 µM | IC50 (human TLR9): 1140 nM
